Values of other authors, collected in patent US20110071136A1, “NOVEL TRICYCLIC PROTEIN KINASE MODULATORS” (CYLENE PHARMACEUTICALS, INC, priority 2009, published 2011).

Key:
MV-4-11 (AML) = MV-4-11 (AML) xenograft model; 2008 AACR Annual Meeting, Abstract No. 4974
MOLM-13 (AML) = MOLM-13 (AML) xenograft model; 2008 AACR Annual Meeting, Abstract No. 4974
[1] = system: leukemic cells from AML patients; settings: Fedorov et al., PNAS 104(51), 20523-28

| SMILES | tumor regression (MV-4-11 (AML)) | tumor regression (MOLM-13 (AML)) | cell growth and cell death [1] |
| --- | --- | --- | --- |
| CN1CCC(CNc2ccc3ncc(-c4cccc(OC(F)(F)F)c4)n3n2)CC1 [SGI-1776] | significant tumor regression | significant tumor regression |  |
| CN(C)C[C@@H]1CCn2cc(c3ccccc32)C2=C(C(=O)NC2=O)c2cn(c3ccccc23)CCO1 [Ly5333'531] |  |  | suppressed cell growth and induced cell death |
